{
  "source": "patent US11013780B2",
  "about": "“Methods of treating female infertility” (Myovant Sciences GmbH, priority 2016, dated 2021)",
  "key": {"[1]": {"conditions": "in vivo; cited from earlier work"}, "LH surge": {"tested_on": "LH surge", "conditions": "trigger in ART protocol with GnRH antagonist and FSH; cited from earlier work"}, "serum LH, FSH, E2": {"tested_on": "serum LH, FSH, E2", "assay": "Physiological effects in healthy women, follicular phase (Example 11, Part 1)", "assay_type": "in vivo, human", "conditions": "9.6 nmol/kg SC", "from_the_text": "The study population included healthy women, aged 18-35 years, with BMI 18-30 kg/m^2, no medical problems and not taking any medications or hormonal contraception. Three healthy, female subjects were selected and randomized and received a single dose of each of the three study regimens noted below (one regimen per study period). All women were scheduled for three Study D1 Visits (each during the follicular phase of the menstrual cycle). […] The order in which a subject receives one of the three study regimens was determined by a randomization matrix.\nThe study included a screening visit to collect participants' full medical history and to conduct a general medical examination and blood testing. The three study periods each consisted of three planned study visits per study period (excluding screening and follow-up). Study Day 1 (SD1) Visit of each study period occurred during the follicular phase of the menstrual cycle (days 1-4), and the SD2 and SD3 Visits occurred at 24- and 48-hrs post-dose, respectively (FIG. 14). A follow-up phone call happened 7-10 days post-dose in each study period.\nImmediately following dosing, serum LH, FSH, E2 (oestradiol), P (progesterone) and SHBG levels were assessed at 30 minute intervals for up to 14 hours (FIGS. 15A-15C, 16A-16C, 17, 18, 19, 20A, and 20B). These PD variables were also assessed at 24 (Study Day 2) and 48 hours (Study Day 3) post-dose. SHBG changes less rapidly and was measured every 3 hours to reduce blood volume.\nUp to 3 mL of blood volume were required for measurement of serum reproductive hormone levels (LH, FSH, E2 and P). Blood samples for serum analysis were collected in plain Vacutainer tubes (Beckton Dickson, Franklin Lakes, N.J., USA), and spun after clotting (˜1 hour at room temperature) for 10 minutes at 3000 rpm. Serum was then stored in a locked freezer at −20° C. until assay of serum reproductive hormone levels."}},
  "note": "Where no end group is shown, it is not given here.",
  "data": [
    {"substance": "kisspeptin-54: previously shown to be clinically effective as a trigger for oocyte maturation in IVF studies (GTSLSPPPESSGSPQQPGLSAPHSRQIPAPQGAVLVQREKDLPNYNWNSFGLRF; ends and bridges not checked; UniProt Q15726 68-121, looked up)", "values": [
      {"measurement": "half-life", "setting": "[1]", "result": 32, "unit": "min"},
      {"measurement": "Time by which the LH surge resolved", "setting": "LH surge", "result": "≤ 36", "unit": "h"},
      {"measurement": "Time of LH peak after administration", "setting": "serum LH, FSH, E2", "result": "4 to 6", "unit": "h"}
    ]}
  ]
}
